Assay results as given in the NIST ThermoML archive (doi:10.1016/j.jct.2013.09.006).

Columns and labels:
[1] = refractive index (Na D-line) (dimensionless); settings: 101.33 kPa, Liquid, Standard Abbe refractometry
[2] = 101.33 kPa, Liquid; for viscosity: Capillary tube (Ostwald / Ubbelohde) method; for mass density: Vibrating tube method

CCO [ethanol]
Settings | mass density, 298.15 K [kg/m3] | mass density, 303.15 K [kg/m3] | mass density, 308.15 K [kg/m3] | refractive index, 298.15 K | refractive index, 303.15 K | refractive index, 308.15 K | viscosity, 298.15 K [mPa·s] | viscosity, 303.15 K [mPa·s] | viscosity, 308.15 K [mPa·s]
[1] | – | – | – | 1.3593 | 1.3573 | 1.3556 | – | – | –
[2] | 785.9 | 780.2 | 776.5 | – | – | – | 1.09 | 0.95 | 0.87
